Assays:
Balb/c mice = assay: Hematopoietic function of PEGylated rhEPO: hematocrit (HCT) in mice; type: in vivo; conditions: normal male Balb/c mice, intravenous 20 μg/kg every 3 days
Description: In order to confirm whether the PEGylated rhEPO obtained in Example 1 maintained the hematopoietic function even after the PEGylation, the following experiment was performed, and the results are shown in FIG. 6.
The rhEPO without PEGylation and the PEGylated rhEPO (PEG-rhEPO) prepared in Example 1 were intravenously injected into Balb/c mice at a dose of 20 μg/kg every 3 days. In vivo activities were compared by measuring hematocrit (HCT), a reliable method for quantification of erythrocytes. As a control, phosphate buffered saline (PBS) was used.
Particularly, normal male Balb/c mice were purchased from Orient Bio Inc. (South Korea). The weight of the mice was 23-25 g, and the mice were housed in groups of 3-4 mice in one cage. Food and water were supplied freely (ad libitum), and each cage was allowed to have a 12-hour light/dark cycle under the conventional animal experiment system of KPC, Korea.
Each sample (rhEPO or PEG-rhEPO) ([…] in DPBS) was injected intravenously into normal male Balb/c mice (50 μL/mouse) every 3 days for 2 weeks. The same amount of DPBS was administered to the control group. A total of 21 mice were used in the experiment. Blood samples were collected every 3 days including day 0 to evaluate the hematopoietic effect. Hematocrit was evaluated by measuring the volume of the packed cells obtained by centrifugation performed immediately after the blood collection. Delta hematocrit (DHematocrit) was determined by the difference between the initial hematocrit for each mouse (day 0) and the hematocrit at each time point.

HeLa cells = assay: Cytotoxicity by cell counting kit-8 (CCK-8) viability test; type: cell-based; conditions: 0.1 to 100 μM
Description: The cytotoxicity was evaluated in HeLa cells by cell counting kit-8 (CCK-8) viability test.
Particularly, HeLa cells were seeded in a 96-well tissue culture plate at the density of 5,000 cells/well and cultured in 100 μL of DMEM (Dulbecco's Modified Eagle's Medium) supplemented with 10% FBS (fetal bovine serum) for 24 hours. After replacing the medium with 90 μL of a fresh medium, 10 μl of the compound prepared in Preparative Example 4 of various concentrations (final 0.5% DMSO) was added to each well of the plate, and the cells were further cultured for 24 hours and 48 hours. The cells were washed 3 times with a fresh medium to remove extracellular samples, and 100 μl of a fresh medium containing 10% CCK-8 was added to each well of the plate. After incubating the cells at 37° C. for 2 hours, OD450 was measured with a microplate reader (Molecular Devices Co., Menlo Park, Calif., USA). Only the background signal of CCK-8 was subtracted from all the samples. The cell viability was evaluated as the percentage of absorbance of the untreated cells to the control.

| Compound | HCT level compared with rhEPO without PEGylation (statistical analysis) (Balb/c mice) | HCT level (hematocrit) over time (Balb/c mice; blood sampled every 3 days for 15 days) | HCT level compared with control group (statistical analysis) (Balb/c mice; control PBS/DPBS) | Cytotoxicity (cell viability, CCK-8) (HeLa cells; 24 hours) | Cytotoxicity (cell viability, CCK-8) (HeLa cells; 48 hours) |
| --- | --- | --- | --- | --- | --- |
| PEG-rhEPO: PEGylated recombinant human erythropoietin, PEG bound by sulfate bond to Tyr-49 | no significant difference | increased for 15 days | clear difference | – | – |
| N[C@@H](Cc1ccc(OS(=O)(=O)Oc2ccc(C[C@H](N)C(=O)O)cc2)cc1)C(=O)O [Preparative Example 4, (2S,2'S)-3,3′-((sulfonylbis(oxy))bis(4,1-phenylene))bis(2-aminopropanoic Acid)] | – | – | – | did not show cytotoxicity | did not show cytotoxicity |

Reference: patent US12122812B2, “Method for preparing biomaterial having selectively functionalized tyrosine, biomaterial having selectively functionalized tyrosine, and pharmaceutical composition containing same as active ingredient” (SEOUL NATIONAL UNIVERSITY R&DB FOUNDATION, priority 2018, dated 2024)
